In this assay the target is T1, Axl (Homo sapiens, UniProt P30530).
T1 sequence (P30530 26-894): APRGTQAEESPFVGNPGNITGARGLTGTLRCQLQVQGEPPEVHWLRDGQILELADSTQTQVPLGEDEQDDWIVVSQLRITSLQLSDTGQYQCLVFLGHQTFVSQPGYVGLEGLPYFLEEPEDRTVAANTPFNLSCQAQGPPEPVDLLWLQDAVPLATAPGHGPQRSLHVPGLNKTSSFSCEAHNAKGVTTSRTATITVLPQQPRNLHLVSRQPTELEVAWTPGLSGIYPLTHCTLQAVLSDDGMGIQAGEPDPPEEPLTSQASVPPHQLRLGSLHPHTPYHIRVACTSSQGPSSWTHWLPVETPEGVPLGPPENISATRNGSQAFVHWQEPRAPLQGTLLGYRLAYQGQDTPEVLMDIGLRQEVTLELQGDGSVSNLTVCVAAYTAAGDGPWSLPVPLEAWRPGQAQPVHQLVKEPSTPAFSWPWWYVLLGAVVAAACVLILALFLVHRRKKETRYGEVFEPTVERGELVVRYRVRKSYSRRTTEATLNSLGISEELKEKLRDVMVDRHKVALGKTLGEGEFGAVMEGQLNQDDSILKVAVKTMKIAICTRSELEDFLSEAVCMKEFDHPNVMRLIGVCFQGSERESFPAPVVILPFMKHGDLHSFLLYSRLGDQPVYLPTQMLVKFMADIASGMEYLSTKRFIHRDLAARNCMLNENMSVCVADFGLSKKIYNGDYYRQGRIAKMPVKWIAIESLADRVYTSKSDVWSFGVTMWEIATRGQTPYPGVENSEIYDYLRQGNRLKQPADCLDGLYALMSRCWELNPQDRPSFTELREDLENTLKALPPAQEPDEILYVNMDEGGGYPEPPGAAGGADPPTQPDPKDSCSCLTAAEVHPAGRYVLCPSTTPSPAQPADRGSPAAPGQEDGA
As to the kind of experiment: Cellular Axl inhibition ELISA (p-Axl, Gas6-induced) using H1299 cells. The assay is classed as cell-based. More on the design: especially H1299 cell endogenously expresses Axl; endogenous in cells; host or cells: H1299. To be noted: read-out: Cellular Axl activity by H1299 Elisa (IC50). The method in brief: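 H1299 cells, seeded overnight, exposed 24 h at 37 °C to 10-point 3-fold compound dilutions, then stimulated with 200 ng/ml human Gas6 (final) for 1 h. Lysates assayed for p-Axl by sandwich ELISA with HRP/TMB, absorbance 450 nm; IC50 by sigmoidal dose-response fit.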
(In an ELISA, binding on a coated surface is turned into a signal by an enzyme label.)
The term IC50 denotes the concentration needed to halve the response being measured. `COc1cc2nccc(Oc3ccc(NC(=O)c4nn(CC(C)C)cc4OCC(F)(F)F)cc3F)c2cc1OC` [Compound 53]: the IC50 is below 0.5 µM.

As for `COc1cc2nccc(Oc3ccc(NC(=O)c4nn(C[C@H](C)O)cc4OCC(F)(F)F)nc3)c2cc1OC` [Compound 30], the IC50 was below 0.5 µM.

As for `COc1cc2nccc(Oc3ccc(NC(=O)c4nn(CC(C)O)cc4OCC(F)(F)F)c(F)c3)c2cc1OC` (centres unmarked) [Compound 76], the IC50 is below 0.5 µM.

Turning to `COc1cc2nccc(Oc3ccc(NC(=O)c4nn(C5CCCC5)cc4OCC(F)(F)F)c(F)c3)c2cc1OC` [Compound 47], the IC50 is below 0.5 µM.

Take `CCCn1cc(OCC(F)(F)F)c(C(=O)Nc2ccc(Oc3ccnc4cc(OC)c(OC)cc34)cc2C)n1` [Compound 27]: the IC50 is below 0.5 µM.

For the molecule `CCC(=O)n1cc(OCC(F)(F)F)c(C(=O)Nc2ccc(Oc3ccnc4cc(OC)c(OC)cc34)cn2)n1` [Compound 20], the IC50 was below 0.5 µM.

As to `COc1cc2nccc(Oc3ccc(NC(=O)c4nn(CCN)cc4OCC(F)(F)F)c(F)c3)c2cc1OC` [Compound 75], the IC50 was below 0.5 µM.

Regarding `CCCn1cc(OCCF)c(C(=O)Nc2ccc(Oc3ccnc4cc(OC)c(OC)cc34)cn2)n1` [Compound 14], the IC50 is below 0.5 µM.

Regarding `COc1cc2nccc(Oc3ccc(NC(=O)c4nc(CCC(F)(F)F)oc4CCC4CCC4)nc3)c2cc1OC` [Compound 176], the IC50 is below 0.5 µM.

For the molecule `COc1cc2nccc(Oc3ccc(NC(=O)c4nn(C5CCOC5)cc4OCC(F)(F)F)cc3)c2cc1OC` (centres unmarked) [Compound 62], the IC50 was below 0.5 µM.

For `COc1cc2nccc(Oc3ccc(NC(=O)c4nn(CC5CCCC5)cc4OCC(F)(F)F)nc3)c2cc1OC` [Compound 71], the IC50 is below 0.5 µM.

Take `COc1cc2nccc(Oc3ccc(NC(=O)c4nn(CC5CC5)cc4OCC(F)(F)F)nc3)c2cc1OC` [Compound 41]: the IC50 is below 0.5 µM.

Take `COc1cc2nccc(Oc3ccc(NC(=O)c4nn(CC(C)C)cc4OCC(F)(F)F)c(F)c3)c2cc1OC` [Compound 48]: the IC50 was below 0.5 µM.

Take `COc1cc2nccc(Oc3ccc(NC(=O)c4nn(C5CC5)cc4OCC4CNC4)nn3)c2cc1OC` [Compound 172]: the IC50 was at least 1 µM.

With `CCn1nc(C(=O)Nc2ccc(Oc3ccnc4cc(OC)c(OC)cc34)cn2)c(OCC(F)(F)F)c1C` [Compound 1], the concentration for half-maximal inhibition (IC50) is below 0.5 µM.

Turning to `COc1cc2nccc(Oc3ccc(NC(=O)c4nn(CC5CCCCC5)cc4OCC(F)(F)F)nc3)c2cc1OC` [Compound 43], the IC50 is below 0.5 µM.

Take `COc1cc2nccc(Oc3ccc(NC(=O)c4nn(CC(C)O)cc4OCC4CN(C)C4)nc3)c2cc1OC` (centres unmarked) [Compound 174]: the IC50 was at least 1 µM.

With `CCCn1cc(OCC(F)(F)F)c(C(=O)Nc2ccc(Oc3ccnc4cc(OC)c(OC)cc34)c(C)c2)n1` [Compound 26], the IC50 was below 0.5 µM.

`COc1cc2nccc(Oc3ccc(NC(=O)c4nn(C5CCOC5)cc4OCC(F)(F)F)nc3)c2cc1OC` (centres unmarked) [Compound 13]: the IC50 was below 0.5 µM.

For the molecule `COc1cc2nccc(Oc3ccc(NC(=O)c4nn(CCO)cc4OCC(F)(F)F)nc3)c2cc1OC` [Compound 67], the IC50 is below 0.5 µM.

In the case of `COCCn1cc(OCC(F)(F)F)c(C(=O)Nc2ccc(Oc3ccnc4cc(OC)c(OC)cc34)cc2F)n1` [Compound 49], the IC50 was below 0.5 µM.

With `COc1cc2nccc(Oc3ccc(NC(=O)c4nn(C5CCNC5)cc4OCC(F)(F)F)nc3)c2cc1OC` (centres unmarked) [Compound 70], the IC50 was below 0.5 µM.

`COc1cc2nccc(Oc3ccc(NC(=O)c4nn(CCCN)cc4OCC(F)(F)F)nc3)c2cc1OC` [Compound 68]: the IC50 was below 0.5 µM.

`COc1cc2nccc(Oc3ccc(NC(=O)c4nn(CCO)cc4OCC(F)(F)F)cc3F)c2cc1OC` [Compound 51]: the IC50 is below 0.5 µM.

On to `COc1cc2nccc(Oc3ccc(NC(=O)c4nn(C(C)(C)C)cc4OCC(F)(F)F)nc3)c2cc1OC` [Compound 22], for which the IC50 is below 0.5 µM.

Turning to `COc1cc2nccc(Oc3ccc(NC(=O)c4nn(CCCO)cc4OCC(F)(F)F)nc3)c2cc1OC` [Compound 18], the IC50 is below 0.5 µM.

Consider `COc1cc2nccc(Oc3ccc(NC(=O)c4nn(CC(C)O)cc4OCC(F)F)nc3)c2cc1OC` (centres unmarked) [Compound 175], for which the IC50 is below 0.5 µM.

Turning to `CCCn1cc(OC(C)C)c(C(=O)Nc2ccc(Oc3ccnc4cc(OC)c(OC(F)(F)F)cc34)c(F)c2)n1` [Compound 35], the IC50 is at least 1 µM.

Turning to `COc1cc2nccc(Oc3ccc(NC(=O)c4nn(C5CCCC5)cc4OCC(F)(F)F)cc3)c2cc1OC` [Compound 60], the IC50 is below 0.5 µM.

`COCCOc1cn(C2CC2)nc1C(=O)Nc1ccc(Oc2ccnc3cc(OC)c(OC)cc23)nn1` [Compound 171]: the IC50 was below 0.5 µM.

Turning to `COc1cc2nccc(Oc3ccc(NC(=O)c4nn(C)cc4OCC(F)(F)F)c(F)c3)c2cc1OC` [Compound 45], the IC50 was 0.5 to 1 µM.

In the case of `COc1cc2nccc(Oc3ccc(NC(=O)c4nn(CCO)cc4OCC(F)(F)F)cc3)c2cc1OC` [Compound 59], the IC50 was below 0.5 µM.

As to `CCCn1cc(OCC2CCC2)c(C(=O)Nc2ccc(Oc3ccnc4cc(OC)c(OC(F)(F)F)cc34)cn2)n1` [Compound 167], the IC50 was below 0.5 µM.

For the molecule `CCCn1cc(OCCN(C)C)c(C(=O)Nc2ccc(Oc3ccnc4cc(OC)c(OC)cc34)cn2)n1` [Compound 177], the 50% inhibitory concentration (IC50) was below 0.5 µM.

Regarding `COc1cc2nccc(Oc3ccc(NC(=O)c4nn(CC5CCC5)cc4OCC(F)(F)F)nc3)c2cc1OC` [Compound 42], the IC50 is below 0.5 µM.

Take `CCCn1cc(OCC(F)(F)F)c(C(=O)Nc2ccc(Oc3ccnc4cc(OC)c(OC)cc34)nn2)n1` [Compound 32]: the IC50 is below 0.5 µM.

Turning to `COc1cc2nccc(Oc3ccc(NC(=O)c4nn(C5CCCCC5)cc4OCC(F)(F)F)nc3)c2cc1OC` [Compound 69], the IC50 is below 0.5 µM.

As for `COc1cc2nccc(Oc3ccc(NC(=O)c4nn(CCC(F)(F)F)cc4OCC4CCC4)nc3)c2cc1OC` [Compound 166], the IC50 was below 0.5 µM.

Take `COc1cc2nccc(Oc3ccc(NC(=O)c4nn(CC(C)(F)F)cc4OCC(F)(F)F)nc3)c2cc1OC` [Compound 64]: the half-inhibitory concentration (IC50) was below 0.5 µM.

As to `COc1cc2nccc(Oc3ccc(NC(=O)c4nn(CC(C)C)cc4OCC(F)(F)F)cc3C)c2cc1OC` [Compound 58], the IC50 is below 0.5 µM.

As to `COc1cc2nccc(Oc3ccc(NC(=O)c4nn(C)cc4OCC(F)(F)F)cc3C)c2cc1OC` [Compound 37], the IC50 was at least 1 µM.

Consider `COc1cc2nccc(Oc3ccc(NC(=O)c4nn(C5CC5)c(C(C)=O)c4OCC(F)(F)F)nc3)c2cc1OC` [Compound 3], for which the IC50 was below 0.5 µM.

As for `CCCn1cc(OCC(F)(F)F)c(C(=O)Nc2ccc(Oc3ccnc4cc(OC)c(OC)cc34)c(F)c2)n1` [Compound 25], the IC50 was below 0.5 µM.

For the molecule `COc1cc2nccc(Oc3ccc(NC(=O)c4nn(CCO)cc4OCC(F)(F)F)c(F)c3)c2cc1OC` [Compound 46], the IC50 was below 0.5 µM.

For the molecule `COc1cc2nccc(Oc3ccc(NC(=O)c4nn(C)cc4OCC(F)(F)F)nc3)c2cc1OC` [Compound 33], the IC50 is below 0.5 µM.

For the molecule `COCCn1cc(OCC(F)(F)F)c(C(=O)Nc2ccc(Oc3ccnc4cc(OC)c(OC)cc34)c(F)c2)n1` [Compound 54], the IC50 was below 0.5 µM.

In the case of `CCCCn1cc(OCC(F)(F)F)c(C(=O)Nc2ccc(Oc3ccnc4cc(OC)c(OC)cc34)cn2)n1` [Compound 36], the IC50 is below 0.5 µM.

For `COc1cc2nccc(Oc3ccc(NC(=O)c4nn(CCOC5CCC5)cc4OCC(F)(F)F)nc3)c2cc1OC` [Compound 65], the IC50 is below 0.5 µM.

Turning to `COc1cc2nccc(Oc3ccc(NC(=O)c4nn(C5COC5)cc4OCC(F)(F)F)nc3)c2cc1OC` [Compound 66], the IC50 is below 0.5 µM.

Turning to `CCCn1cc(NCC(F)(F)F)c(C(=O)Nc2ccc(Oc3ccnc4cc(OC)c(OC)cc34)cn2)n1` [Compound 23], the IC50 is below 0.5 µM.

For the molecule `COc1cc2nccc(Oc3ccc(NC(=O)c4nn(CC(C)=O)cc4OCC(F)(F)F)nc3)c2cc1OC` [Compound 19], the IC50 is below 0.5 µM.

In the case of `COCCn1cc(OCC(F)(F)F)c(C(=O)Nc2ccc(Oc3ccnc4cc(OC)c(OC)cc34)cc2)n1` [Compound 61], the IC50 is below 0.5 µM.

Take `COc1cc2nccc(Oc3ccc(NC(=O)c4nn(C5CCCC5)cc4OCC(F)(F)F)cc3C)c2cc1OC` [Compound 57]: the IC50 is below 0.5 µM.

In the case of `COc1cc2nccc(Oc3ccc(NC(=O)c4nn(CC5CCN(C)C5)cc4OCC(F)(F)F)nc3)c2cc1OC` (centres unmarked) [Compound 169], the IC50 was at least 1 µM.

Turning to `CCCn1cc(OCCC(F)(F)F)c(C(=O)Nc2ccc(Oc3ccnc4cc(OC)c(OC)cc34)cn2)n1` [Compound 31], the IC50 was below 0.5 µM.

Consider `COc1cc2nccc(Oc3ccc(NC(=O)c4nn(C5CCNC5)cc4OCC(F)(F)F)c(F)c3)c2cc1OC` (centres unmarked) [Compound 74], for which the IC50 was below 0.5 µM.
